Source: US6929810B2, “Preparation of essential oil compositions for portable liquid disinfection” (Council of Scientific and Industrial Research, priority 2001, dated 2005)

System: E. coli
Experiment: bore-well method (zone of inhibition)
Type: cell-based
Conditions: standard antibiotics available in the market

## Gentamycin
  Zone of Inhibition, Antibiotic: 24 mm

## NC[C@H]1O[C@H](O[C@H]2[C@H](O)[C@@H](O[C@H]3O[C@H](CO)[C@@H](O)[C@H](N)[C@H]3O)[C@H](N)C[C@@H]2N)[C@H](O)[C@@H](O)[C@@H]1O [Kanamycin]
  Zone of Inhibition, Antibiotic: 30 mm

## O=C(N[C@H](CO)[C@H](O)c1ccc([N+](=O)[O-])cc1)C(Cl)Cl [Chloromphenilcol]
  Zone of Inhibition, Antibiotic: 35 mm

## CC1(C)S[C@@H]2[C@H](NC(=O)[C@H](N)c3ccccc3)C(=O)N2[C@H]1C(=O)O [Ampicillin]
  Zone of Inhibition, Antibiotic: 14 mm

## CN(C)[C@@H]1C(O)=C(C(N)=O)C(=O)[C@@]2(O)C(O)=C3C(=O)c4c(O)cccc4[C@@](C)(O)[C@H]3C[C@@H]12 [Tetracycline]
  Zone of Inhibition, Antibiotic: 24 mm

## CC[C@H]1OC(=O)[C@H](C)[C@@H](O[C@H]2C[C@@](C)(OC)[C@@H](O)[C@H](C)O2)[C@H](C)[C@@H](O[C@@H]2O[C@H](C)C[C@H](N(C)C)[C@H]2O)[C@](C)(O)C[C@@H](C)C(=O)[C@H](C)[C@@H](O)[C@]1(C)O [Erythromycin]
  Zone of Inhibition, Antibiotic: 10 mm
